One series has as its system catalepsy. Briefly: Catalepsy assay (bar test). The series is classed as in vivo, C57BI/6J mice. As to conditions: 100 mg/kg p.o., 30 and 90 min after administration. The protocol:
Twenty-four male C57BI/6J mice were divided randomly into four groups. Mice were placed in a room 1 h before testing. […] The front paws of mice were placed on a horizontal metal bar raised 2 inches above a Plexiglas™ platform 30 min and 90 min after administration. The time the front paws of mice were placed on the platform was recorded at ≤30 s per trial. Each test was repeated three times.

The target in another series is T1, human TAAR1 (Homo sapiens, UniProt Q96RJ0).
T1 construct: expressed in transfected cells; host or cells: cAMP Hunter CHO-K1 AGTRL1 Gi cells
T1 sequence (Q96RJ0 1-339): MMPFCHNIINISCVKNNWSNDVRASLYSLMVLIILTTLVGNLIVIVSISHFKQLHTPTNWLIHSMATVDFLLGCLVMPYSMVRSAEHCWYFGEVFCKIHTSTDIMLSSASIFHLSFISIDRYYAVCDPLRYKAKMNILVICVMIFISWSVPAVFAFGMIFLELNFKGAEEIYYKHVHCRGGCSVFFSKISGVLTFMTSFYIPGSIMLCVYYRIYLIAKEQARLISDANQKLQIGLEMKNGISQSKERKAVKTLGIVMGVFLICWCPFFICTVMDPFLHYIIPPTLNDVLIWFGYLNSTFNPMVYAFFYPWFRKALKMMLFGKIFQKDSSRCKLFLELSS
Briefly: cAMP assay, functional agonist activity at human TAAR1. The series is classed as cell-based. The protocol:
Cells were seeded in a total volume of 20 µL into white-walled, 384-well microplates, followed by incubation at 37°C for the appropriate time before testing. Different concentrations of compounds were added to cells, and incubation was undertaken at 37°C for 10 min, with p-tyramine used as the MAX control. cAMP modulation was determined using the DiscoverX HitHunter cAMP XS + assay. Percentage activity was calculated using the following equation: Activity %=mean RLUtest sample – mean RLUvehicle control/mean RLUMAX control – mean RLUvehicle control×100%.
In general terms: Changes in cAMP serve as a functional read-out for many G protein-coupled receptors.

In series [1] the test system is MK801-induced schizophrenia-like behavior. Briefly: MK801-induced schizophrenia-like behavior (open field, distance traveled). The series is classed as in vivo, C57BI/6J mice. The protocol:
Ninety-nine male C57BI/6J mice were divided randomly into 11 groups. Mice were placed in a room 1 h before testing. They were administered (p.o.) vehicle (0.1 ml/10 g), 50A (0.3, 1, 3, and 10 mg/kg; 0.1 ml/10 g), or 50B (0.3, 1, 3, and 10 mg/kg; 0.1 ml/10 g). […] Then, mice were administered (i.p.) MK801 (0.8 mg/kg dissolved in physiologic saline; 0.1 ml/10 g). After 30 min, the distance that mice traveled was measured.
Forty-six male C57BI/6J mice were divided randomly into four groups. The CN group contained four mice. […] The administration method described previously was employed.

Experimental findings from PMC10160475, “Biological evaluation and in silico studies of novel compounds as potent TAAR1 agonists that could be used in schizophrenia treatment” (Frontiers in Pharmacology, 2023) are described below.

Regarding `c1csc([C@H]2CNCCO2)c1` [Compound 50A], the “Time mice spent holding bars (catalepsy)” value in the series on catalepsy is recorded as “did not increase this time”. Besides, at human TAAR1, the EC50 amounted to 6.25 µM. The Emax at human TAAR1 (cAMP modulation, p-tyramine as MAX control, read-out: TAAR1 Agonist % Emax) stood at 64%. Further, the “Inhibition of MK801-induced schizophrenia-like behavior (effective doses)” value in series [1] (mice, single oral dose 0.3, 1, 3 and 10 mg/kg, MK801 0.8 mg/kg i.p.) is “only at 1 mg/kg”. Besides, the “Distance moved by mice in the presence or absence of MK801” value in series [1] (single oral dose 0.3, 1, 3 and 10 mg/kg) is on record as “significantly reduced the distance moved by mice”.
For the compound `O=C1CCc2ccc(OCCCCN3CCN(c4cccc(Cl)c4Cl)CC3)cc2N1` [aripiprazole, reference compound], the MK801-induced schizophrenia-like behavior entry in series [1] (mice, aripiprazole 5 mg/kg p.o., MK801 0.8 mg/kg i.p.) is “significantly reduced”.
For `Cc1nc2n(c(=O)c1CCN1CCC(c3noc4cc(F)ccc34)CC1)CCCC2` [risperidone, reference compound], the MK801-induced schizophrenia-like behavior entry in series [1] (mice, risperidone 0.1 mg/kg p.o., MK801 0.8 mg/kg i.p.) is reported as “significantly reduced”.

By EC50 is commonly meant the concentration needed to bring the measured effect to its halfway point. The Emax is the maximal effect, on the per cent scale that the assay sets.
